In BigSolDB 2.1:

Row | Structure (SMILES) | solubility (mole fraction) (in ethyl acetate, 303.15 K) | solubility (mole fraction) (in ethyl acetate, 307.15 K) | solubility (mole fraction) (in ethyl acetate, 312.15 K) | solubility (mole fraction) (in ethyl acetate, 317.15 K) | solubility (mole fraction) (in ethyl acetate, 321.15 K) | solubility (mole fraction) (in n-hexane, 303.15 K) | solubility (mole fraction) (in n-hexane, 307.15 K) | solubility (mole fraction) (in n-hexane, 312.15 K) | solubility (mole fraction) (in n-hexane, 317.15 K) | solubility (mole fraction) (in n-hexane, 321.15 K) | solubility (mole fraction) (in tert-amyl alcohol, 303.15 K) | solubility (mole fraction) (in tert-amyl alcohol, 307.15 K) | solubility (mole fraction) (in tert-amyl alcohol, 312.15 K) | solubility (mole fraction) (in tert-amyl alcohol, 317.15 K) | solubility (mole fraction) (in tert-amyl alcohol, 321.15 K) | solubility (mole fraction) (in tert-butanol, 303.15 K) | solubility (mole fraction) (in tert-butanol, 307.15 K) | solubility (mole fraction) (in tert-butanol, 312.15 K) | solubility (mole fraction) (in tert-butanol, 317.15 K) | solubility (mole fraction) (in tert-butanol, 321.15 K)
1 | COC(=O)/C=C/c1cc(OC)c(O)c(OC)c1 | 0.117 | 0.128 | 0.147 | 0.157 | 0.168 | 0.000292 | 0.000383 | 0.000495 | 0.000743 | 0.000804 | 0.0264 | 0.0336 | 0.0644 | 0.0926 | 0.14 | 0.0184 | 0.0234 | 0.0523 | 0.0743 | 0.0973
2 | COC(=O)/C=C/c1ccc(O)cc1 | 0.0856 | 0.0915 | 0.0997 | 0.108 | 0.113 | 2.81e-05 | 4.38e-05 | 6.18e-05 | 8.13e-05 | 0.000124 | 0.116 | 0.126 | 0.154 | 0.174 | 0.201 | 0.0977 | 0.113 | 0.128 | 0.143 | 0.171
3 | COC(=O)/C=C/c1ccc(O)c(OC)c1 | 0.217 | 0.247 | 0.279 | 0.305 | 0.334 | 0.00112 | 0.00211 | 0.00251 | 0.00354 | 0.00416 | 0.215 | 0.246 | 0.287 | 0.312 | 0.342 | 0.182 | 0.209 | 0.247 | 0.295 | 0.325
